# Source: patent US12098176B2, “Keratin BD-4, preparation method, and pharmaceutical composition and use thereof” (Institute of Materia Medica, Chinese Academy of Medical …, priority 2019, dated 2024)
# Structures can show the parent of a compound that is named as a salt.
# Tested on: phenol red excretion in mice
# Assay: Expectorant test, phenol red excretion method in mice
# Assay type: in vivo, mouse
# Experimental: Experimental example 5 The pharmacodynamic test of protein BD-4 (Example 4 protein) on the expectorant of phenol red excretion method in mice.
# • Solvent control group; • Mucosultan 30 mg/kg group; • Protein BD-4, 20 mg/kg group, 50 mg/kg group. Method: Model Preparation and Administration:
# The animals were fasted and watered 16 hours before the experiment. Orally administered Mucosultan and different doses of protein BD-4 (administration volume 10 ml/kg) in groups, and the solvent control group was given the same volume of distilled water. One hour later, 2.5% phenol red solution was injected intraperitoneally, Kill the mouse by removing the neck after 30 minutes. Take the trachea from below the thyroid cartilage to the branch of the trachea. Put the trachea into 3 ml 5% NaHCO3 solution and let it stand for 3 hours. Take 1 ml of the supernatant and centrifuge at 3000 rpm for 5 minutes. Measure and record the absorbance at 546 nm. According to the standard curve of phenol red, the excretion of phenol red was calculated.
# Record the time point of oral administration, the time point of intraperitoneal injection of 2.5% phenol red solution, and the time point of tracheal extraction respectively; The absorbance of each group of samples was measured by the microplate reader at 546 nm, Calculate the excretion of phenol red according to the standard curve of phenol red. […]
smiles,measurement,setting,value
"Nc1c(Br)cc(Br)cc1CN[C@H]1CC[C@H](O)CC1 [Mucosolvan, ambroxol hydrochloride, reference compound]",Phenol red excretion,"Mucosolvan 30 mg/kg oral, X ± SEM",1.138 ± 0.079 µg/mL
same,Phenol red excretion vs solvent control group,"Mucosultan 30 mg/kg, P<0.05",significantly increased
